Reference: paper PMC7156458, “Synthetic biology based construction of biological activity-related library of fungal decalin-containing diterpenoid pyrones” (Nature Communications, 2020)
Values joined by “and” are separate entries in the source; they are usually repeats but may differ in a detail not shown here. Equal entries are not always repeated. Where two headings read alike, the source gives them in different places.

What was measured:
MCF-7 cells = assay: cell cytotoxic effects against MCF-7 cells (72 h), A490; assay type: cell-based, human; conditions: for viability at 0.1 µM / viability at 1 µM / viability at 10 µM: Homo sapiens, MCF7, 72 h, read-out: A490 (control =1) ave; for viability at 0.1 µM / viability at 1 µM / viability at 10 µM / A490 ave: MCF-7, 72 h
[1] = cytotoxicity in Drosophila DL1 cells; assay type: cell-based; conditions: Drosophila, DL1 cells (embryonic macrophage-derived), DL1 cells
Method: (§1) We screened the DDPs on the Drosophila assay system for cytotoxicity, inhibitory activity of innate immune signalling and insecticidal activity. The cytotoxicity of the DDPs was evaluated using two cell lines, embryonic macrophage-derived DL1 cells[58]–[60] and larval blood cell-derived l(2)mbn cells, and their IC50 values are listed in Supplementary Table 23.

DL1 cells = assay: cytotoxicity in Drosophila DL1 cells; assay type: cell-based; conditions: DL1 cells; for IC50: Drosophila melanogaster, cytotoxicity
Method: as §1

[2] = system: human immunodeficiency virus-1 (HIV-1); assay: anti-HIV MAGI assay; assay type: cell-based; conditions: anti-HIV
Text: We examined the inhibitory activities of DDPs against various species of bacteria (both gram-negative and gram-positive bacteria), fungi and viruses. […] In contrast, preliminary screening of the DDPs for anti-viral agents with hepatitis B virus (HBV), measles virus (MV), Epstein-Barr virus (EBV), herpes simplex virus (HSV) and human immunodeficiency virus-1 (HIV-1) indicated their selective inhibition of HIV.

MAGI cells = assay: cytotoxicity in the anti-HIV assay (CC50); assay type: cell-based; conditions: single determinations
HBC-5 = assay: cells; parameters: species or system JFCR39 human cancer cell lines; JFCR39 panel growth inhibition, sulforhodamine B total protein after 48 h; conditions: HBC5, 48 h
Procedure, shortened: (§2)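 Growth inhibition in JFCR39 human cancer lines was quantified by the SRB total-protein method following 48 h compound treatment. GI50 came from duplicate runs.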

LOX-IMVI = assay: cells; parameters: species or system JFCR39 human cancer cell lines; JFCR39 panel growth inhibition, sulforhodamine B total protein after 48 h; conditions: Homo sapiens, LOX IMVI, 48 h
Procedure, shortened: as §2

MDA-MB-231 = assay: cells; parameters: species or system JFCR39 human cancer cell lines; JFCR39 panel growth inhibition, sulforhodamine B total protein after 48 h; conditions: Homo sapiens, MDA-MB-231, 48 h
Procedure, shortened: as §2

MKN-B = assay: cells; parameters: species or system JFCR39 human cancer cell lines; JFCR39 panel growth inhibition, sulforhodamine B total protein after 48 h; conditions: 48 h
Procedure, shortened: as §2

MKN1 = assay: cells; parameters: species or system JFCR39 human cancer cell lines; JFCR39 panel growth inhibition, sulforhodamine B total protein after 48 h; conditions: Homo sapiens, MKN-1, 48 h
Procedure, shortened: as §2

OVCAR-3 = assay: cells; parameters: species or system JFCR39 human cancer cell lines; JFCR39 panel growth inhibition, sulforhodamine B total protein after 48 h; conditions: Homo sapiens, OVCAR-3, 48 h
Procedure, shortened: as §2

OVCAR-8 = assay: cells; parameters: species or system JFCR39 human cancer cell lines; JFCR39 panel growth inhibition, sulforhodamine B total protein after 48 h; conditions: Homo sapiens, OVCAR-8, 48 h
Procedure, shortened: as §2

[3] = 0.1 µM (DMSO 0.002%), control 1.064
[4] = 1 µM (DMSO 0.02%), control 1.104
[5] = 10 µM (DMSO 0.2%), control 1.049
[6] = replicate 1, relative to DMSO 1%, read-out: % viability, viability 1
[7] = replicate 2, relative to DMSO 1%, read-out: % viability, viability 2
[8] = average of two replicates, read-out: IC50 Average
[9] = replicate 1, read-out: IC50 (1)
[10] = replicate 2, read-out: IC50 (2)
[11] = Human immunodeficiency virus 1, MAGI, average of numeric determinations, read-out: Avg. EC50

C=C1CCC2C(C)(CCC=C(C)C)C(O)CCC2(C)C1Cc1c(OC)oc(CO)c(C(=O)OC)c1=O (centres unmarked) [Compound 13]
viability at 0.1 µM (MCF-7 cells; 0.1 µM (DMSO 0.002%)): 89.1%
viability at 1 µM (MCF-7 cells; 1 µM (DMSO 0.02%)): 106%
viability at 10 µM (MCF-7 cells; 10 µM (DMSO 0.2%)): 98.6%
A490 ave (MCF-7 cells; [3]): 0.948
A490 ave (MCF-7 cells; [4]): 1.176
A490 ave (MCF-7 cells; [5]): 1.034
viability at 0.04 µM [1, 6]: 100%
viability at 0.04 µM [1, 7]: 102%
viability at 0.2 µM [1, 6]: 78.9%
viability at 0.2 µM [1, 7]: 70.5%
viability at 1 µM [1, 6]: 9.59%
viability at 1 µM [1, 7]: 9.84%
viability at 4 µM [1, 6]: 6.11%
viability at 4 µM [1, 7]: 5.06%
viability at 10 µM [1, 6]: 7.19%
viability at 10 µM [1, 7]: 6.02%
viability at 20 µM [1, 6]: 4.62%
viability at 20 µM [1, 7]: 3.94%
Luminescence Raw1 (DL1 cells; 0.04 µM, replicate 1): 2061595
Luminescence Raw2 (DL1 cells; 0.04 µM, replicate 2): 2096579
Luminescence Raw1 (DL1 cells; 0.2 µM, replicate 1): 1624487
Luminescence Raw2 (DL1 cells; 0.2 µM, replicate 2): 1452825
Luminescence Raw1 (DL1 cells; 1 µM, replicate 1): 197587
Luminescence Raw2 (DL1 cells; 1 µM, replicate 2): 202634
Luminescence Raw1 (DL1 cells; 4 µM, replicate 1): 125835
Luminescence Raw2 (DL1 cells; 4 µM, replicate 2): 104201
Luminescence Raw1 (DL1 cells; 10 µM, replicate 1): 148189
Luminescence Raw2 (DL1 cells; 10 µM, replicate 2): 124032
Luminescence Raw1 (DL1 cells; 20 µM, replicate 1): 95187
Luminescence Raw2 (DL1 cells; 20 µM, replicate 2): 81125
IC50 (DL1 cells; [8]): 0.292 µM
IC50 (DL1 cells; average±SEM, read-out: IC50): 0.29 ± 0.02 µM
IC50 (DL1 cells; [9]): 0.311 µM
IC50 (DL1 cells; [10]): 0.273 µM
EC50 [2, 11]: 0.0688 µM
EC50 ([2]; Human immunodeficiency virus 1, MAGI, single determinations, read-out: Efficacy (EC50)): 0.0697 µM
EC50 ([2]; single determinations, read-out: Efficacy (EC50)): 0.0611 µM and 0.0814 µM and 0.0631 µM
Cytotoxicity (MAGI cells): >10 µM
GI50 (HBC-5): 15.1 µM
GI50 (LOX-IMVI): 13.7 µM
GI50 (MDA-MB-231): 19.6 µM
GI50 (MKN-B): 15.7 µM
GI50 (MKN1): 18.8 µM
GI50 (OVCAR-3): 10.8 µM
GI50 (OVCAR-8): 17.1 µM

C=C1CC[C@@H]2[C@](C)(CC[C@H]3O[C@H](C=C(C)C)C[C@@]23C)[C@@H]1Cc1c(OC)oc(CO)c(C)c1=O [Compound 20]
cytotoxicity against the bulk of MCF-7 cells (MCF-7 cells): dose-dependent cytotoxicity
viability at 0.1 µM (MCF-7 cells; 0.1 µM (DMSO 0.002%)): 90%
viability at 1 µM (MCF-7 cells; 1 µM (DMSO 0.02%)): 45.3%
viability at 10 µM (MCF-7 cells; 10 µM (DMSO 0.2%)): 29.4%
A490 ave (MCF-7 cells; [3]): 0.958
A490 ave (MCF-7 cells; [4]): 0.500
A490 ave (MCF-7 cells; [5]): 0.308
viability at 0.04 µM [1, 6]: 191%
viability at 0.04 µM [1, 7]: 209%
viability at 0.2 µM [1, 6]: 171%
viability at 0.2 µM [1, 7]: 166%
viability at 1 µM [1, 6]: 20.6%
viability at 1 µM [1, 7]: 19.9%
viability at 4 µM [1, 6]: 20.4%
viability at 4 µM [1, 7]: 21.2%
viability at 10 µM [1, 6]: 20.5%
viability at 10 µM [1, 7]: 19.2%
viability at 20 µM [1, 6]: 20.5%
viability at 20 µM [1, 7]: 24.6%
Luminescence Raw1 (DL1 cells; 0.04 µM, replicate 1): 2619350
Luminescence Raw2 (DL1 cells; 0.04 µM, replicate 2): 2864984
Luminescence Raw1 (DL1 cells; 0.2 µM, replicate 1): 2345231
Luminescence Raw2 (DL1 cells; 0.2 µM, replicate 2): 2278506
Luminescence Raw1 (DL1 cells; 1 µM, replicate 1): 282109
Luminescence Raw2 (DL1 cells; 1 µM, replicate 2): 273095
Luminescence Raw1 (DL1 cells; 4 µM, replicate 1): 279585
Luminescence Raw2 (DL1 cells; 4 µM, replicate 2): 290402
Luminescence Raw1 (DL1 cells; 10 µM, replicate 1): 280667
Luminescence Raw2 (DL1 cells; 10 µM, replicate 2): 263720
Luminescence Raw1 (DL1 cells; 20 µM, replicate 1): 281027
Luminescence Raw2 (DL1 cells; 20 µM, replicate 2): 336916
IC50 (DL1 cells; [8]): 0.269 µM
IC50 (DL1 cells; average±SEM, read-out: IC50): 0.27 ± 0.03 µM
IC50 (DL1 cells; [9]): 0.299 µM
IC50 (DL1 cells; [10]): 0.238 µM
EC50 [2, 11]: 4.07 µM
Cytotoxicity (MAGI cells): >10 µM
GI50 (HBC-5): 12.4 µM
GI50 (LOX-IMVI): 10.1 µM
GI50 (MDA-MB-231): 13.1 µM
GI50 (MKN-B): 1.06 µM
GI50 (MKN1): 14.6 µM
GI50 (OVCAR-3): 3.81 µM
GI50 (OVCAR-8): 12.3 µM
